From patent US20040062739A1, “Use of carbohydrates to improve skin barrier function” (SOCIETE L'OREAL S.A., priority 2000, published 2004)

Columns and labels:
[1] = test system: β-D-glucosidase in the stratum corneum; assay: enzymatic test of stratum corneum glycosidases with PNP chromogenic substrate: β-glucosidase; assay type: biochemical; settings: for stimulation of β-D-glucosidase activity: different concentrations, FIG. 2
Procedure: (§1) In order to determine the nature and importance of the barrier effect of a carbohydrate derivative in accordance with the invention, the influence of O-octanoyl-6′-maltose on glycosidase activity was studied using the following enzymatic test: The assay was carried out in a 96 well plate. A mixture comprising the following was produced: 75μl of a 10 mM solution of specific chromogenic substrate coupled to paranitrophenol (PNP); 10 μl of 700 mM citrate buffer/200 mM sodium phosphate, pH 4.5; 55 μl of a 0.5 M solution of O-octanoyl-6′-maltose [α-D-glucopyannosyl-1-4-D-glucopyranose]; 40 μl of a solution of soluble glycosidases from the stratum corneum. This solution was obtained simply by scratching the forearm into a 70 mM sodium citrate buffer, pH 4.5 containing 1% of Tween 20 and eliminating cell debris by sequential filtering through a membrane with a pore size of 0.45 and of 0.22 μm. The measurements were carried out by quantifying the yellow coloration after incubation at 37° C. for a period in the range 1h30 and 48 hours.

[2] = test system: other glycosidases of the stratum corneum; assay: enzymatic test of stratum corneum glycosidases with PNP chromogenic substrate: other glycosidases; assay type: biochemical; settings: FIG. 1; activity relative to value without compound; pH 4.5, 37° C.
Procedure: as §1

[3] = test system: thermostable recombinant glycosidases (Clonezyme); assay: effect on thermostable recombinant glycosidases sold by Clonezyme; assay type: biochemical; settings: FIG. 3; increasing concentrations; 7 glycosidases tested
Procedure: O-octanoyl-6′-maltose was also tested for its effect on glycosidases sold by Clonezyme.

GLY-01 = test system: GLY-01; design: key: −: no activity; ε, +, ++: specific activity; ε, +, ++: specific activity; ε, +, ++: specific activity; settings: glycosidase sold by Clonezyme; cited from earlier work
GLY-02 = test system: GLY-02; design: key: −: no activity; ε, +, ++: specific activity; ε, +, ++: specific activity; ε, +, ++: specific activity; settings: glycosidase sold by Clonezyme; cited from earlier work
GLY-03 = test system: GLY-03; design: key: −: no activity; ε, +, ++: specific activity; ε, +, ++: specific activity; ε, +, ++: specific activity; settings: glycosidase sold by Clonezyme; cited from earlier work
GLY-04 = test system: GLY-04; design: key: −: no activity; ε, +, ++: specific activity; ε, +, ++: specific activity; ε, +, ++: specific activity; settings: glycosidase sold by Clonezyme; cited from earlier work
GLY-05 = test system: GLY-05; design: key: −: no activity; ε, +, ++: specific activity; ε, +, ++: specific activity; ε, +, ++: specific activity; settings: glycosidase sold by Clonezyme; cited from earlier work
GLY-06 = test system: GLY-06; design: key: −: no activity; ε, +, ++: specific activity; ε, +, ++: specific activity; ε, +, ++: specific activity; settings: glycosidase sold by Clonezyme; cited from earlier work
GLY-07 = test system: GLY-07; design: key: −: no activity; ε, +, ++: specific activity; ε, +, ++: specific activity; ε, +, ++: specific activity; settings: glycosidase sold by Clonezyme; cited from earlier work
GLY-08 = test system: GLY-08; design: key: −: no activity; ε, +, ++: specific activity; ε, +, ++: specific activity; ε, +, ++: specific activity; settings: glycosidase sold by Clonezyme; cited from earlier work
GLY-09 = test system: GLY-09; design: key: −: no activity; ε, +, ++: specific activity; ε, +, ++: specific activity; ε, +, ++: specific activity; settings: glycosidase sold by Clonezyme; cited from earlier work
GLY-10 = test system: GLY-10; design: key: −: no activity; ε, +, ++: specific activity; ε, +, ++: specific activity; ε, +, ++: specific activity; settings: glycosidase sold by Clonezyme; cited from earlier work

In the case of `CCCCCCCC(=O)OCC1OC(O)C(O)C(O)C1O` [O-octanoyl-6-D-glucose], the “stimulation of β-D-glucosidase activity” value [1] is reported as “a certain stimulation of activity, albeit small”.

In the case of `CCCCCCCC(=O)OC[C@H]1O[C@H](O[C@H]2[C@H](O)[C@@H](O)C(O)O[C@@H]2CO)[C@H](O)[C@@H](O)[C@@H]1O` (stereo partly drawn) [O-octanoyl-6′-maltose, O-octanoyl-6′-maltose [α-D-glucopyranosyl-1-4-D-glucopyranose]], the “effect on β-glucosidase activity of the stratum corneum” value ([1]; FIG. 1, activity relative to value without compound, pH 4.5, 37° C.) is reported as “only β-glucosidase had kinetics influenced”, the “concentration giving maximum stimulation of β-D-glucosidase activity” value ([1]; increasing product concentrations, about 40 mM (1%)) is reported as “about 40 mM” and the “effect on the other glycosidases of the stratum corneum” value [2] is reported as “either indifferent to the presence of O-octanoyl-6′-maltose or very slightly inhibited”. The “effect on recombinant glycosidases, first group of enzymes” value [3] was “insensitive”, the “effect on recombinant glycosidases, second group of enzymes” value [3] was “inhibited” and the “stimulation of recombinant glycosidases, third group of enzymes, of their base activity” value [3] was “up to 400%”.

With `OC[C@H]1O[C@H](O[C@H]2[C@H](O)[C@@H](O)[C@H](O)O[C@@H]2CO)[C@H](O)[C@@H](O)[C@@H]1O` [maltose] the “stimulation of β-D-glucosidase activity” value [1] was “Neither maltose alone nor glucose alone could stimulate β-D-glucosidase activity”.

For `C[C@@H]1O[C@H](O)[C@@H](O)[C@H](O)[C@@H]1O` [β-L-fucose], the “substrate specificity GLY-01” value (GLY-01) is listed as “−”, the “substrate specificity GLY-02” value (GLY-02) is listed as “−” and the “substrate specificity GLY-03” value (GLY-03) is listed as “−”. The “substrate specificity GLY-04” value (GLY-04) was “−”, the “substrate specificity GLY-05” value (GLY-05) was “−” and the “substrate specificity GLY-06” value (GLY-06) was “−”. For the same molecule, the “substrate specificity GLY-07” value (GLY-07) was “−”, the “substrate specificity GLY-08” value (GLY-08) was “−” and the “substrate specificity GLY-09” value (GLY-09) was “−”. For the same molecule, the “substrate specificity GLY-10” value (GLY-10) was “−”.

For `CC(=O)NC1C(Oc2ccc([N+](=O)[O-])cc2)OC(CO)C(O)C1O` [β-N-acetyl-D-glucosaminide], the “substrate specificity GLY-01” value (GLY-01) is given as “−”, the “substrate specificity GLY-02” value (GLY-02) is given as “−” and the “substrate specificity GLY-03” value (GLY-03) is given as “−”. For the same molecule, the “substrate specificity GLY-04” value (GLY-04) was “−”, the “substrate specificity GLY-05” value (GLY-05) was “−” and the “substrate specificity GLY-06” value (GLY-06) was “−”. For the same molecule, the “substrate specificity GLY-07” value (GLY-07) was “−”, the “substrate specificity GLY-08” value (GLY-08) was “−” and the “substrate specificity GLY-09” value (GLY-09) was “−”. For the same molecule, the “substrate specificity GLY-10” value (GLY-10) was “−”.
